The nature of the data set: active ingredient concentration over time in 50% ethanol solution (pullulan precipitating agent). It is filed as physicochemical. Particulars: 50% ethanol solution in buffer, 25 minutes, one data point every five minutes (FIG. 7). The method, then: FIGS. 6-8 show examples of removing pullulan by precipitation using an alcohol or PEG. As an alternative, pullulan can be removed by precipitation using either an alcohol or polyethylene glycol (PEG). In this approach, the precipitating agent is added to the solution and causes pullulan to form a white solid. The active ingredient is not affected by this addition. The solid can be stopped from getting into the solution by either an appropriate container or a simple filter. […] In FIG. 7, a 50% ethanol solution was prepared in buffer. The active ingredient concentration was measured over time for 25 minutes (one data point every five minutes). […] Furthermore, measurements of the same concentration in straight buffer yield the same measured concentration of active ingredient.

Regarding `CC(=O)C(=O)OO` [active ingredient, peroxy pyruvic acid], the “measured concentration of active ingredient over time” value was “no statistical difference”.

The values are drawn from patent US9283202B2, “Stable peracid-containing compositions” (CHD Bioscience, Inc., priority 2012, dated 2016).
